Literature values as cited in patent US4937073A, “Reformed vetiver oil and vetiverol, process for preparing the same, and perfumery composition comprising the same” (Kao Corporation, priority 1988, dated 1990).
Like-named read-outs stand apart in the source and are kept apart here.

- pKa: 2.82
- pKa (listed as Tartaric acid): 1.04
SMILES: O=C(O)C(O)C(O)C(=O)O (centres unmarked) [tartaric acid]
